Measured values taken from patent publication US10385022B2, “3-amino-pyridines as GPBAR1 agonists” (HOFFMANN-LA ROCHE INC., priority 2011, dated 2019).

target: human GPBAR1 receptor (Homo sapiens (Human), UniProt Q8TDU6); assay: functional cAMP assay in CHO-dhfr(minus) cells expressing human GPBAR1 receptors; type: cell-based; details: CHO-dhfr(minus) cells expressing human GPBAR1, 30 min at 30° C.
Procedure: The final clone was verified by DNA sequence analysis. The plasmid was transfected into CHO cells deficient in dihydrofolate reductase activity (CHO-dhfr-) using Lipofectamine plus (Invitrogen). Clones were isolated in limited dilution conditions and identified by activities in the cAMP assay using lithocholic acid as agonist.
EC50 values were determined using Activity Base analysis (ID Business Solution, Limited). […] Specificity for GPBAR1 was tested in non-transfected CHO cells in the same assay as above.

Chain of human GPBAR1 receptor (Q8TDU6 whole entry): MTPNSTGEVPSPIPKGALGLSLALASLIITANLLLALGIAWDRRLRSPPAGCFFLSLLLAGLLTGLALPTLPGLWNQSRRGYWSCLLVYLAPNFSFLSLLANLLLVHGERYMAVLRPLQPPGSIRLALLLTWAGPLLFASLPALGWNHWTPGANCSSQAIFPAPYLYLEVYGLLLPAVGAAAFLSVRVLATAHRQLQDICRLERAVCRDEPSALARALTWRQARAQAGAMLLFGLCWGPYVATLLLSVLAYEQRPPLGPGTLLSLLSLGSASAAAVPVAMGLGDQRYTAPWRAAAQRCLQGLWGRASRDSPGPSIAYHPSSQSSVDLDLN

Row | EC50 | SMILES
1 | 1830 nM | CN(C(=O)c1cc(C(F)(F)F)cc(C(F)(F)F)c1)c1cnc(Cl)cc1-c1ncccc1Cl [Example 73, N-(3,6′-Dichloro-[2,4′]bipyridinyl-3′-yl)-N-methyl-3,5-bis-trifluoromethyl-benzamide]
2 | 34 nM | CN(C(=O)c1cc(Br)cc(C(F)(F)F)c1)c1cnccc1-c1ccccc1Cl [Example 74, 3-Bromo-N-[4-(2-chloro-phenyl)-pyridin-3-yl]-N-methyl-5-trifluoromethyl-benzamide]
3 | 452 nM | COC(=O)c1cc(C(=O)N(C)c2cnccc2-c2ccccc2Cl)cc(C(F)(F)F)c1 [Example 75, N-[4-(2-Chloro-phenyl)-pyridin-3-yl]-N-methyl-5-trifluoromethyl-isophthalamic acid methyl ester]
4 | 1960 nM | CN(C(=O)c1cc(CO)cc(C(F)(F)F)c1)c1cnccc1-c1ccccc1Cl [Example 76, N-[4-(2-Chloro-phenyl)-pyridin-3-yl]-3-hydroxymethyl-N-methyl-5-trifluoromethyl-benzamide]
5 | 715 nM | CN(C(=O)c1cc(C(C)(C)O)cc(C(F)(F)F)c1)c1cnccc1-c1ccccc1Cl [Example 77, N-[4-(2-Chloro-phenyl)-pyridin-3-yl]-3-(1-hydroxy-1-methyl-ethyl)-N-methyl-5-trifluoromethyl-benzamide]
6 | 21 nM | CN(C(=O)c1cc(C(F)(F)F)cc(C(F)(F)F)c1)c1cnccc1-c1ccccc1Cl [Example 78, N-[4-(2-Chloro-phenyl)-pyridin-3-yl]-N-methyl-3,5-bis-trifluoromethyl-benzamide]
7 | 1380 nM | CN(C(=O)c1cc(O)cc(C(F)(F)F)c1)c1cnccc1-c1ccccc1Cl [Example 79, N-[4-(2-Chloro-phenyl)-pyridin-3-yl]-3-hydroxy-N-methyl-5-trifluoromethyl-benzamide]
8 | 299 nM | CN(C(=O)c1ccc(Br)c(C(F)(F)F)c1)c1cnccc1-c1ccccc1Cl [Example 80, 4-Bromo-N-[4-(2-chloro-phenyl)-pyridin-3-yl]-N-methyl-3-trifluoromethyl-benzamide]
9 | 234 nM | Cc1ccc(Cl)cc1-c1ccncc1N(C)C(=O)c1cc(C(F)(F)F)cc(C(F)(F)F)c1 [Example 82, N-[4-(5-Chloro-2-methyl-phenyl)-pyridin-3-yl]-N-methyl-3,5-bis-trifluoromethyl-benzamide]
10 | 376 nM | COC(=O)c1ccc(C)c(-c2ccncc2N(C)C(=O)c2cc(C(F)(F)F)cc(C(F)(F)F)c2)c1 [Example 83, 3-{3-[(3,5-Bis-trifluoromethyl-benzoyl)-methyl-amino]-pyridin-4-yl}-4-methyl-benzoic acid methyl ester]
11 | 2020 nM | Cc1ccc(C(=O)O)cc1-c1ccncc1N(C)C(=O)c1cc(C(F)(F)F)cc(C(F)(F)F)c1 [Example 84, 3-{3-[(3,5-Bis-trifluoromethyl-benzoyl)-methyl-amino]-pyridin-4-yl}-4-methyl-benzoic acid]
12 | 200 nM | O=C(c1cc(C(F)(F)F)cc(C(F)(F)F)c1)N(CC(F)(F)F)c1cnccc1-c1ccccc1Cl [Example 85, N-[4-(2-Chloro-phenyl)-pyridin-3-yl]-N-(2,2,2-trifluoro-ethyl)-3,5-bis-trifluoromethyl-benzamide]
13 | 267 nM | O=C(c1cc(C(F)(F)F)cc(C(F)(F)F)c1)N(CC1CC1)c1cnccc1-c1ccccc1Cl [Example 86, N-[4-(2-Chloro-phenyl)-pyridin-3-yl]-N-cyclopropylmethyl-3,5-bis-trifluoromethyl-benzamide]
14 | 66 nM | COC(=O)CN(C(=O)c1cc(C(F)(F)F)cc(C(F)(F)F)c1)c1cnccc1-c1ccccc1Cl [Example 88, {(3,5-Bis-trifluoromethyl-benzoyl)-[4-(2-chloro-phenyl)-pyridin-3-yl]-amino}-acetic acid methyl ester]
15 | 8 nM | COCCN(C(=O)c1cc(C(F)(F)F)cc(C(F)(F)F)c1)c1cnccc1-c1ccccc1Cl [Example 89, N-[4-(2-Chloro-phenyl)-pyridin-3-yl]-N-(2-methoxy-ethyl)-3,5-bis-trifluoromethyl-benzamide]
16 | 2740 nM | Cc1ccccc1-c1ccncc1N(C)C(=O)c1ccc(C(F)(F)F)cc1 [Example 90, N-Methyl-N-(4-o-tolyl-pyridin-3-yl)-4-trifluoromethyl-benzamide]
17 | 152 nM | Cc1ccccc1-c1ccncc1N(C)C(=O)c1ccc(C)c(C(F)(F)F)c1 [Example 91, 4,N-Dimethyl-N-(4-o-tolyl-pyridin-3-yl)-3-trifluoromethyl-benzamide]
18 | 236 nM | COc1ccc(C(=O)N(C)c2cnccc2-c2ccccc2C)cc1C(F)(F)F [Example 92, 4-Methoxy-N-methyl-N-(4-o-tolyl-pyridin-3-yl)-3-trifluoromethyl-benzamide]
19 | 2260 nM | CN(C(=O)c1cc(C(F)(F)F)cc(C(F)(F)F)c1)c1cnccc1-c1ccccc1CCO [Example 93, N-{4-[2-(2-Hydroxy-ethyl)-phenyl]-pyridin-3-yl}-N-methyl-3,5-bis-trifluoromethyl-benzamide]
20 | 2160 nM | Cc1ccccc1-c1ccncc1N(C)C(=O)c1ccc(C(F)(F)F)c(F)c1 [Example 94, 3-Fluoro-N-methyl-N-(4-o-tolyl-pyridin-3-yl)-4-trifluoromethyl-benzamide]

Row | EC50 | SMILES
21 | 92 nM | Cc1ccccc1-c1ccncc1N(C)C(=O)c1ccc(Cl)c(C(F)(F)F)c1 [Example 95, 4-Chloro-N-methyl-N-(4-o-tolyl-pyridin-3-yl)-3-trifluoromethyl-benzamide]
22 | 127 nM | Cc1cc(C)cc(C(=O)N(C)c2cnccc2-c2ccccc2C)c1 [Example 96, 3,5,N-Trimethyl-N-(4-o-tolyl-pyridin-3-yl)-benzamide]
23 | 721 nM | Cc1ccccc1-c1ccncc1N(C)C(=O)c1ccc(C(F)(F)F)c(Cl)c1 [Example 97, 3-Chloro-N-methyl-N-(4-o-tolyl-pyridin-3-yl)-4-trifluoromethyl-benzamide]
24 | 109 nM | COc1cccc(-c2ccncc2N(C)C(=O)c2cc(C(F)(F)F)cc(C(F)(F)F)c2)n1 [Example 98, N-(6-Methoxy-[2,4′]bipyridinyl-3′-yl)-N-methyl-3,5-bis-trifluoromethyl-benzamide]
25 | 2940 nM | COc1ccc(-c2ccncc2N(C)C(=O)c2cc(C(F)(F)F)cc(C(F)(F)F)c2)cn1 [Example 99, N-(6-Methoxy-[3,4′]bipyridinyl-3′-yl)-N-methyl-3,5-bis-trifluoromethyl-benzamide]
26 | 207 nM | Cc1ccccc1-c1ccncc1N(C)C(=O)c1cc(Cl)cc(OC(F)(F)F)c1 [Example 100, 3-Chloro-N-methyl-N-(4-o-tolyl-pyridin-3-yl)-5-trifluoromethoxy-benzamide]
27 | 298 nM | Cc1ccccc1-c1ccncc1N(C)C(=O)c1ccc(C(F)(F)F)c(C(F)(F)F)c1 [Example 101, N-Methyl-N-(4-o-tolyl-pyridin-3-yl)-3,4-bis-trifluoromethyl-benzamide]
28 | 144 nM | CNC(=O)CN(C(=O)c1cc(C(F)(F)F)cc(C(F)(F)F)c1)c1cnccc1-c1ccccc1Cl [Example 102, N-[4-(2-Chloro-phenyl)-pyridin-3-yl]-N-methylcarbamoylmethyl-3,5-bis-trifluoromethyl-benzamide]
29 | 329 nM | Cc1ccccc1-c1ccncc1N(C)C(=O)c1cc(F)cc(Cl)c1 [Example 103, 3-Chloro-5-fluoro-N-methyl-N-(4-o-tolyl-pyridin-3-yl)-benzamide]
30 | 1640 nM | Cc1ccccc1-c1ccncc1N(C)C(=O)c1cc(F)c(F)c(F)c1 [Example 104, 3,4,5-Trifluoro-N-methyl-N-(4-o-tolyl-pyridin-3-yl)-benzamide]
31 | 485 nM | Cc1cccc(-c2ccncc2N(C)C(=O)c2cc(C(F)(F)F)cc(C(F)(F)F)c2)c1C [Example 105, N-[4-(2,3-Dimethyl-phenyl)-pyridin-3-yl]-N-methyl-3,5-bis-trifluoromethyl-benzamide]
32 | 43 nM | CN(C(=O)c1cc(C(F)(F)F)cc(C(F)(F)F)c1)c1cnccc1-c1cccnc1OCC(F)(F)F [Example 106, N-Methyl-N-[2-(2,2,2-trifluoro-ethoxy)-[3,4′]bipyridinyl-3′-yl]-3,5-bis-trifluoromethyl-benzamide]
33 | 70 nM | Cc1cc(C(=O)N(C)c2cnccc2-c2ccccc2C)cc(C(F)(F)F)c1 [Example 108, 3,N-Dimethyl-N-(4-o-tolyl-pyridin-3-yl)-5-trifluoromethyl-benzamide]
34 | 22 nM | Cc1ccccc1-c1ccncc1N(C)C(=O)c1cc(Cl)cc(C(F)(F)F)c1 [Example 109, 3-Chloro-N-methyl-N-(4-o-tolyl-pyridin-3-yl)-5-trifluoromethyl-benzamide]
35 | 152 nM | O=C(c1cc(C(F)(F)F)cc(C(F)(F)F)c1)N(CCF)c1cnccc1-c1ccccc1Cl [Example 110, N-[4-(2-Chloro-phenyl)-pyridin-3-yl]-N-(2-fluoro-ethyl)-3,5-bis-trifluoromethyl-benzamide]
36 | 256 nM | CN(C(=O)c1cc(C(F)(F)F)cc(C(F)(F)F)c1)c1cnccc1-c1cccc(Cl)c1F [Example 111, N-[4-(3-Chloro-2-fluoro-phenyl)-pyridin-3-yl]-N-methyl-3,5-bis-trifluoromethyl-benzamide]
37 | 237 nM | CS(=O)(=O)CCN(C(=O)c1cc(C(F)(F)F)cc(C(F)(F)F)c1)c1cnccc1-c1ccccc1Cl [Example 112, N-[4-(2-Chloro-phenyl)-pyridin-3-yl]-N-(2-methanesulfonyl-ethyl)-3,5-bis-trifluoromethyl-benzamide]
38 | 2010 nM | Cc1ccccc1-c1cc(-c2ccc[nH]2)ncc1N(C)C(=O)c1cc(C(F)(F)F)cc(C(F)(F)F)c1 [Example 113, N-Methyl-N-[6-(1H-pyrrol-2-yl)-4-o-tolyl-pyridin-3-yl]-3,5-bis-trifluoromethyl-benzamide]
39 | 30 nM | Cc1ccccc1-c1ccncc1N(C)C(=O)c1cc(C(F)(F)F)cc(S(C)(=O)=O)c1 [Example 114, 3-Methanesulfonyl-N-methyl-N-(4-o-tolyl-pyridin-3-yl)-5-trifluoromethyl-benzamide]
